Our source for the EC50 and IC50 values is article PMC12667739 (ACS infectious diseases, 2025).

In test [1] the target is T1, ComD (Streptococcus gordonii, UniProt O33646). Put plainly: cell-based.
Test [2] has as its target T1, ComD. Put plainly: cell-based. This is another data set of the same source.

The structures appear in SMILES notation.

The term EC50 denotes the concentration at which the effect is half-maximal. Lower therefore signals higher potency in that assay. In general, IC50 refers to the concentration that inhibits the measured activity by half. Read a low IC50 as higher potency.

As for `CC[C@H](C)[C@H](NC(=O)[C@H](CCCNC(=N)N)NC(=O)[C@H](Cc1c[nH]cn1)NC(=O)[C@H](CCCNC(=N)N)NC(=O)[C@@H](NC(=O)[C@@H](N)CC(=O)O)[C@@H](C)CC)C(=O)N[C@@H](CC(N)=O)C(=O)N[C@@H](C)C(=O)N[C@@H](CO)C(=O)N[C@H](C(=O)N[C@@H](Cc1c[nH]c2ccccc12)C(=O)N[C@@H](CCCNC(=N)N)C(=O)N[C@@H](CC(=O)O)C(=O)N[C@H](C(=O)N[C@@H](Cc1ccccc1)C(=O)N[C@@H](CC(C)C)C(=O)N[C@@H](CCCCN)C(=O)N[C@@H](CCCNC(=N)N)C(=O)N[C@@H](CCCCN)C(=O)O)[C@@H](C)CC)[C@@H](C)CC` [Peptide N8A], in test [1], the EC50 worked out at 692 nM.

In the case of `CC[C@H](C)[C@H](NC(=O)[C@H](CC(=O)O)NC(=O)[C@H](CCCNC(=N)N)NC(=O)[C@H](Cc1c[nH]c2ccccc12)NC(=O)[C@@H](NC(=O)[C@H](CO)NC(=O)[C@H](CC(N)=O)NC(=O)[C@H](CC(N)=O)NC(=O)[C@@H](NC(=O)[C@H](CCCNC(=N)N)NC(=O)[C@H](Cc1c[nH]cn1)NC(=O)[C@H](CCCNC(=N)N)NC(=O)[C@@H](NC(=O)[C@@H](N)CC(=O)O)[C@@H](C)CC)[C@@H](C)CC)[C@@H](C)CC)C(=O)N[C@@H](Cc1ccccc1)C(=O)N[C@@H](CC(C)C)C(=O)N[C@@H](CCCCN)C(=O)N[C@@H](CCCNC(=N)N)C(=O)N[C@@H](C)C(=O)O` [Peptide K19A], the EC50 in test [1] was 272 nM.

Take `CC[C@H](C)[C@H](NC(=O)[C@H](CO)NC(=O)[C@H](CC(N)=O)NC(=O)[C@H](CC(N)=O)NC(=O)[C@@H](NC(=O)[C@H](CCCNC(=N)N)NC(=O)[C@H](Cc1c[nH]cn1)NC(=O)[C@H](CCCNC(=N)N)NC(=O)[C@@H](NC(=O)[C@@H](N)CC(=O)O)[C@@H](C)CC)[C@@H](C)CC)C(=O)N[C@@H](Cc1c[nH]c2ccccc12)C(=O)N[C@@H](C)C(=O)N[C@@H](CC(=O)O)C(=O)N[C@H](C(=O)N[C@@H](Cc1ccccc1)C(=O)N[C@@H](CC(C)C)C(=O)N[C@@H](CCCCN)C(=O)N[C@@H](CCCNC(=N)N)C(=O)N[C@@H](CCCCN)C(=O)O)[C@@H](C)CC` [Peptide R12A]: the EC50 in test [1] turned out to be 127 nM.

The molecule `CC[C@H](C)[C@H](N)C(=O)N[C@@H](CCCNC(=N)N)C(=O)N[C@@H](Cc1c[nH]cn1)C(=O)N[C@@H](CCCNC(=N)N)C(=O)N[C@H](C(=O)N[C@@H](CC(N)=O)C(=O)N[C@@H](CC(N)=O)C(=O)N[C@@H](CO)C(=O)N[C@H](C(=O)N[C@@H](Cc1c[nH]c2ccccc12)C(=O)N[C@@H](CCCNC(=N)N)C(=O)N[C@@H](CC(=O)O)C(=O)N[C@H](C(=O)N[C@@H](Cc1ccccc1)C(=O)N[C@@H](CC(C)C)C(=O)N[C@@H](CCCCN)C(=O)N[C@@H](CCCNC(=N)N)C(=O)N[C@@H](CCCCN)C(=O)O)[C@@H](C)CC)[C@@H](C)CC)[C@@H](C)CC` [desD1] came in with an IC50 in test [2] of 985 nM.

With `CC[C@H](C)[C@H](NC(=O)[C@H](CCCNC(=N)N)NC(=O)[C@H](C)NC(=O)[C@H](CCCNC(=N)N)NC(=O)[C@@H](NC(=O)[C@@H](N)CC(=O)O)[C@@H](C)CC)C(=O)N[C@@H](CC(N)=O)C(=O)N[C@@H](CC(N)=O)C(=O)N[C@@H](CO)C(=O)N[C@H](C(=O)N[C@@H](Cc1c[nH]c2ccccc12)C(=O)N[C@@H](CCCNC(=N)N)C(=O)N[C@@H](CC(=O)O)C(=O)N[C@H](C(=O)N[C@@H](Cc1ccccc1)C(=O)N[C@@H](CC(C)C)C(=O)N[C@@H](CCCCN)C(=O)N[C@@H](CCCNC(=N)N)C(=O)N[C@@H](CCCCN)C(=O)O)[C@@H](C)CC)[C@@H](C)CC` [Peptide H4A], in test [1], the concentration for a half-maximal effect (EC50) turned out to be 722 nM.

On to `CC[C@H](C)[C@H](NC(=O)[C@H](CC(=O)O)NC(=O)[C@H](CCCNC(=N)N)NC(=O)[C@H](Cc1c[nH]c2ccccc12)NC(=O)[C@@H](NC(=O)[C@H](CO)NC(=O)[C@H](CC(N)=O)NC(=O)[C@H](CC(N)=O)NC(=O)[C@@H](NC(=O)[C@H](CCCNC(=N)N)NC(=O)[C@H](Cc1c[nH]cn1)NC(=O)[C@H](CCCNC(=N)N)NC(=O)[C@@H](NC(=O)[C@@H](N)CC(=O)O)[C@@H](C)CC)[C@@H](C)CC)[C@@H](C)CC)C(=O)N[C@@H](Cc1ccccc1)C(=O)N[C@@H](CC(C)C)C(=O)N[C@@H](CCCCN)C(=O)N[C@@H](CCCNC(=N)N)C(=O)O` [desK19], for which the EC50 in test [1] amounted to 309 nM.

Molecule `CC[C@H](C)[C@H](NC(=O)[C@H](CCCNC(=N)N)NC(=O)[C@H](Cc1c[nH]cn1)NC(=O)[C@H](CCCNC(=N)N)NC(=O)[C@@H](NC(=O)[C@@H](N)CC(=O)O)[C@@H](C)CC)C(=O)N[C@@H](C)C(=O)N[C@@H](CC(N)=O)C(=O)N[C@@H](CO)C(=O)N[C@H](C(=O)N[C@@H](Cc1c[nH]c2ccccc12)C(=O)N[C@@H](CCCNC(=N)N)C(=O)N[C@@H](CC(=O)O)C(=O)N[C@H](C(=O)N[C@@H](Cc1ccccc1)C(=O)N[C@@H](CC(C)C)C(=O)N[C@@H](CCCCN)C(=O)N[C@@H](CCCNC(=N)N)C(=O)N[C@@H](CCCCN)C(=O)O)[C@@H](C)CC)[C@@H](C)CC` [Peptide N7A] returned a concentration giving a half-maximal response (EC50) in test [1] of 203 nM.

The molecule `CC[C@H](C)[C@H](NC(=O)[C@H](CC(=O)O)NC(=O)[C@H](CCCNC(=N)N)NC(=O)[C@H](Cc1c[nH]c2ccccc12)NC(=O)[C@@H](NC(=O)[C@H](CO)NC(=O)[C@H](CC(N)=O)NC(=O)[C@H](CC(N)=O)NC(=O)[C@@H](NC(=O)[C@H](CCCNC(=N)N)NC(=O)[C@H](Cc1c[nH]cn1)NC(=O)[C@H](CCCNC(=N)N)NC(=O)[C@@H](NC(=O)[C@@H](N)CC(=O)O)[C@@H](C)CC)[C@@H](C)CC)[C@@H](C)CC)C(=O)N[C@@H](Cc1ccccc1)C(=O)N[C@@H](CC(C)C)C(=O)N[C@@H](C)C(=O)N[C@@H](CCCNC(=N)N)C(=O)N[C@@H](CCCCN)C(=O)O` [Peptide K17A] came in with an EC50 in test [1] of 426 nM.

For `CC[C@H](C)[C@H](NC(=O)[C@H](CC(=O)O)NC(=O)[C@H](CCCNC(=N)N)NC(=O)[C@H](Cc1c[nH]c2ccccc12)NC(=O)[C@@H](NC(=O)[C@H](CO)NC(=O)[C@H](CC(N)=O)NC(=O)[C@H](CC(N)=O)NC(=O)[C@@H](NC(=O)[C@H](CCCNC(=N)N)NC(=O)[C@H](Cc1c[nH]cn1)NC(=O)[C@H](CCCNC(=N)N)NC(=O)[C@@H](NC(=O)[C@@H](N)CC(=O)O)[C@@H](C)CC)[C@@H](C)CC)[C@@H](C)CC)C(=O)N[C@@H](Cc1ccccc1)C(=O)N[C@@H](C)C(=O)N[C@@H](CCCCN)C(=O)N[C@@H](CCCNC(=N)N)C(=O)N[C@@H](CCCCN)C(=O)O` [Peptide L16A], the EC50 in test [1] amounted to 127 nM.

On to `CC[C@H](C)[C@H](NC(=O)[C@H](CC(=O)O)NC(=O)[C@H](CCCNC(=N)N)NC(=O)[C@H](Cc1c[nH]c2ccccc12)NC(=O)[C@@H](NC(=O)[C@H](CO)NC(=O)[C@H](CC(N)=O)NC(=O)[C@H](CC(N)=O)NC(=O)[C@@H](NC(=O)[C@H](CCCNC(=N)N)NC(=O)[C@H](Cc1c[nH]cn1)NC(=O)[C@H](CCCNC(=N)N)NC(=O)[C@@H](NC(=O)[C@@H](N)CC(=O)O)[C@@H](C)CC)[C@@H](C)CC)[C@@H](C)CC)C(=O)N[C@@H](Cc1ccccc1)C(=O)N[C@@H](CC(C)C)C(=O)N[C@@H](CCCCN)C(=O)N[C@@H](C)C(=O)N[C@@H](CCCCN)C(=O)O` [Peptide R18A], for which a half-maximal response in test [1] (EC50) required 406 nM.
